From patent US20250145631A1, “HETEROCYCLIC COMPOUND ACTING ON G12D MUTANT KRAS PROTEIN” (Astellas Pharma Inc., priority 2022, published 2025)

Key:
[1] = system: human G12D mutant KRAS-positive pancreatic cancer line AsPC-1; assay: Non-anchorage-dependent cell growth inhibitory effect, spheroid 3D culture (Test Example 3); assay type: cell-based; settings: ASPC1, 144 h, AsPC-1 spheroid 3D culture, 6 days, CellTiter Glo 2.0, read-out: IC50 (non-anchorage-dependent cell growth inhibition)
How it was run: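 AsPC-1 cells grown as spheroids in RPMI 1640 with 10% FBS at 37° C, 5% CO2, then exposed to compounds (10 μM to 0.3 nM final) for 6 days. Viability read by CellTiter Glo 2.0 luminescence. IC50 from Sigmoid-Emax regression with DMSO as 100% and cell-free medium as 0%.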

KRAS G12D = target: T1, KRAS G12D (Homo sapiens, UniProt P01116, G12D); assay: KRAS degradation activity by Cell ELISA in AsPC-1 cells (Test Example 1); assay type: cell-based; settings: Cell ELISA; for Dmax: ASPC1, overnight treatment, read-out: Dmax (degradation rate at the concentration showing highest degradation); for DC50: overnight treatment, read-out: DC50 (50% degradation concentration of KRAS)
T1 construct: host or cells: AsPC-1 (human pancreatic cancer line)
T1 sequence (P01116 1-188 isoform P01116-2 G12D): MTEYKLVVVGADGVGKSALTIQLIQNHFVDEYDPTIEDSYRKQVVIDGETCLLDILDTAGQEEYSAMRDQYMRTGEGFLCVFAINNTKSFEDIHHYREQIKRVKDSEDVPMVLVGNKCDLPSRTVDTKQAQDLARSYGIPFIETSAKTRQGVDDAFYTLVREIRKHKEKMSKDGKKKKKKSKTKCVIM
How it was run: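 AsPC-1 cells (2.0×10^4/well) treated overnight with compounds at 10 μM–0.3 nM (10 points), then fixed, permeabilised and stained for KRAS G12D (800 nm) and β-actin (700 nm) by in-cell ELISA. KRAS signal normalised to β-actin, DMSO set as 0% and actin-only staining as 100%; DC50 from Sigmoid-Emax regression up to Dmax.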

IC50 [1] [nM] | Dmax (KRAS G12D) [%] | DC50 (KRAS G12D) [nM] | Structure (SMILES)
27 | 86 | 13 | Cc1c(F)cc2[nH]ncc2c1-c1c(C2CC2)cc2c(N3C[C@@H]4C[C@H]3CN4)nc(OC3CCOCC3)nc2c1OCc1ccc(C(=O)N2CCN(Cc3ccc4c(c3)n(C)c(=O)n4C3CCC(=O)NC3=O)C[C@@H]2C)cc1 (stereo partly drawn) [Example 8, 3-(5-{[(3S)-4-{4-[({(7M)-6-cyclopropyl-4-[(1S,4S)-2,5-diazabicyclo[2.2.1]heptan-2-yl]-7-(6-fluoro-5-methyl-1H-indazol-4-yl)-2-[(oxan-4-yl)oxy]quinazolin-8-yl}oxy)methyl]benzoyl}-3-methylpiperazin-1-yl]methyl}-3-methyl-2-oxo-2,3-dihydro-TH-benzimidazol-1-yl)piperidine-2,6-dione]
15 | 86 | 8 | CO[C@@H](C)COc1nc(N2C[C@@H]3C[C@H]2CN3)c2cc(C3CC3)c(-c3c(C)c(F)cc4[nH]ncc34)c(OCc3ccc(C(=O)N4CCN(Cc5ccc6c(c5)n(C)c(=O)n6C5CCC(=O)NC5=O)C[C@@H]4C)cc3)c2n1 (stereo partly drawn) [Example 10, 3-(5-{[(3S)-4-{4-[({(7M)-6-cyclopropyl-4-[(1S,4S)-2,5-diazabicyclo[2.2.1]heptan-2-yl]-7-(6-fluoro-5-methyl-1H-indazol-4-yl)-2-[(2S)-2-methoxypropoxy]quinazolin-8-yl}oxy)methyl]benzoyl}-3-methylpiperazin-1-yl]methyl}-3-methyl-2-oxo-2,3-dihydro-1H-benzimidazol-1-yl)piperidine-2,6-dione]
41 | 82 | 18 | CO[C@@H](C)COc1cc(O[C@H]2CCNC2)c2cc(C3CC3)c(-c3c(C)c(F)cc4[nH]ncc34)c(OCc3ccc(C(=O)N4CCN(Cc5ccc6c(c5)n(C)c(=O)n6C5CCC(=O)NC5=O)C[C@@H]4C)cc3)c2n1 (stereo partly drawn) [Example 12, 3-[5-({(3S)-4-[4-({[6-cyclopropyl-7-(6-fluoro-5-methyl-1H-indazol-4-yl)-2-[(2S)-2-methoxypropoxy]-4-{[(3S)-pyrrolidin-3-yl]oxy}quinolin-8-yl]oxy}methyl)benzoyl]-3-methylpiperazin-1-yl}methyl)-3-methyl-2-oxo-2,3-dihydro-1H-benzimidazol-1-yl]piperidine-2,6-dione]
33 | 86 | 22 | CO[C@@H](C)COc1cc(N2C[C@@H]3C[C@H]2CN3)c2cc(C3CC3)c(-c3c(C)c(F)cc4[nH]ncc34)c(OCc3ccc(C(=O)N4CCN(Cc5ccc6c(c5)n(C)c(=O)n6C5CCC(=O)NC5=O)C[C@@H]4C)cc3)c2n1 (stereo partly drawn) [Example 29, 3-(5-{[(3S)-4-{4-[({6-cyclopropyl-4-[(1S,4S)-2,5-diazabicyclo[2.2.1]heptan-2-yl]-7-(6-fluoro-5-methyl-1H-indazol-4-yl)-2-[(2S)-2-methoxypropoxy]quinolin-8-yl}oxy)methyl]benzoyl}-3-methylpiperazin-1-yl]methyl}-3-methyl-2-oxo-2,3-dihydro-1H-benzimidazol-1-yl)piperidine-2,6-dione]
